# Where two headings read alike, the source gives them in different places.
# What was measured:
# human Hsp90α = human Hsp90α (Homo sapiens, UniProt P07900); experiment: Hsp90α binding, SPA competition with [allyl-3H]-17-AAG
# From the text: Truncated (Carreras et al. Anal. Biochem. 2003, 317, 40-46) and full-length forms of human Hsp90 were expressed in E. coli with N-terminal polyHis and biotinylation recognition sequence (BRS) tags to facilitate purification and SPA assay, respectively. […] The 3′ end of the gene contained a BamHI site, adding a single proline residue to the C-terminus. The tagged full-length protein was cloned into pET21d as described for the tagged N-domain of Hsp90 (Carreras et al., cited supra), and co-expressed with biotin ligase encoded by pBIRAcm (Avidity, Denver, Colo.) in Escherichia coli BL21DE(3).
# Biotinylated Hsp90α was added to a 1 mg/mL suspension of streptavidin coated YiSi beads (Pharmacia RPNQ0012; 219 pmol streptavidin/mg) in Binding Buffer (10 mM Tris-HCl, 5 mM MgCl2, pH 7.0) to obtain a final concentration of 225 nM. […] Reaction mixtures were incubated for 2˜4 h at room temperature in 96-well assay plates, then signals for each reaction were measured using a Wallac Microbeta scintillation counter. The resulting data was fit to a competitive binding equation (Segal, I. H., Enzyme Kinetics: Behavior and analysis of rapid equilibrium and steady-state enzyme systems; Wiley Interscience: New York, 1975).
# SKBr3 cells = experiment: cells; format: cell-based, human; conditions: read-out: Cytotoxicity, SKBr3 Cells (IC50 (nM))
# Description: The human breast cancer cell line SKBr3 was obtained from the American Type Culture Collection (Manassas, Va.) and maintained in McCoy's 5A modified medium (Invitrogen; Carlsbad, Calif.) supplemented with 10% fetal bovine serum (FBS) (Hyclone; Logan, Utah) and 2 mM glutamine, in humidified air with 5% CO2 at 37° C.
# Cells were seeded in duplicate in 96-well black tissue culture microtiter plates at ˜4000 cells per well and allowed to attach overnight. Serial 10-fold dilutions of compounds were added, and the cells were incubated for 72 h. Cell viability was determined using the CellTiter-Glo™ Luminescent Cell Viability Assay (Promega; Madison, Wis.). IC50 is defined as the concentration of drug required for inhibiting cell growth by 50%.
# [1] = biotinylated Hsp90α on streptavidin beads, competition with [allyl-3H]-17-AAG, 2-4 h room temperature, pH 7.0, read-out: Hsp90α Binding (Kd (μM))
# [2] = SK-BR-3, human breast cancer cell line SKBr3, 72 h incubation, concentration inhibiting cell growth by 50%
SMILES,Kd (human Hsp90α; [1]) [µM],IC50 (SKBr3 cells; [2]) [nM],Kd (human Hsp90α) [µM],"IC50 (SKBr3 cells; Homo sapiens, SK-BR-3, 72 h) [nM]"
"CO[C@H]1/C=C\C=C(/C)C(=O)NC2=CC(=O)C(N[C@@H]3C(O)O[C@@H](CO)[C@H](O)[C@H]3O)=C(C[C@@H](C)C[C@H](OC)[C@H](O)[C@@H](C)/C=C(\C)[C@@H]1OC(N)=O)C2=O (stereo partly shown) [Compound 1, 17-(glucos-2-amino)-17-demethoxygeldanamycin]",0.5,1200,,
"CO[C@H]1/C=C\C=C(/C)C(=O)NC2=CC(=O)C(NC[C@@H]3OC(O)[C@@H](O)[C@H](O)[C@H]3O)=C(C[C@@H](C)C[C@H](OC)[C@H](O)[C@@H](C)/C=C(\C)[C@@H]1OC(N)=O)C2=O (stereo partly shown) [Compound 2, 17-(glucos-6-amino)-17-demethoxygeldanamycin]",0.2,5300,,
"CO[C@H]1/C=C\C=C(/C)C(=O)NC2=CC(=O)C(NCC[N+](C)(C)C)=C(C[C@@H](C)C[C@H](OC)[C@H](O)[C@@H](C)/C=C(\C)[C@@H]1OC(N)=O)C2=O [Compound 3, {[2-(17-demethoxygeldanamycin-17-yl)amino]ethyl}trimethylammonium chloride]",0.3,> 1000,,
"CO[C@H]1/C=C\C=C(/C)C(=O)NC2=CC(=O)C(NCC[N+](C)(C)[O-])=C(C[C@@H](C)C[C@H](OC)[C@H](O)[C@@H](C)/C=C(\C)[C@@H]1OC(N)=O)C2=O [Compound 4, [2-(17-demethoxygeldanamycin-17-ylamino)-ethyl]dimethylamine N-oxide]",0.6,> 1000,,
CO[C@H]1/C=C\C=C(/C)C(=O)NC2=CC(=O)C(NCCOCCOCCNC(=O)CCCC[C@@H]3SC[C@@H]4NC(=O)N[C@@H]43)=C(C[C@@H](C)C[C@H](OC)[C@H](O)[C@@H](C)/C=C(\C)[C@@H]1OC(N)=O)C2=O [Compound 5],,> 1000,,
CO[C@H]1/C=C\C=C(/C)C(=O)NC2=CC(=O)C(NCCOCCOCCOCCNC(=O)CCCC[C@@H]3SC[C@@H]4NC(=O)N[C@@H]43)=C(C[C@@H](C)C[C@H](OC)[C@H](O)[C@@H](C)/C=C(\C)[C@@H]1OC(N)=O)C2=O [Compound 6],1.1,> 1000,,
CO[C@H]1/C=C\C=C(/C)C(=O)NC2=CC(=O)C(NCCC(=O)O)=C(C[C@@H](C)C[C@H](OC)[C@H](O)[C@@H](C)/C=C(\C)[C@@H]1OC(N)=O)C2=O [Compound 7],1.1,> 5000,,
CO[C@H]1/C=C\C=C(/C)C(=O)NC2=CC(=O)C(NCCP(=O)(O)O)=C(C[C@@H](C)C[C@H](OC)[C@H](O)[C@@H](C)/C=C(\C)[C@@H]1OC(N)=O)C2=O [Compound 8],,,0.6,~3000
CO[C@H]1/C=C\C=C(/C)C(=O)NC2=CC(=O)C(NCCCP(=O)(O)O)=C(C[C@@H](C)C[C@H](OC)[C@H](O)[C@@H](C)/C=C(\C)[C@@H]1OC(N)=O)C2=O [Compound 9],,,0.9,~1000
CO[C@H]1/C=C\C=C(/C)C(=O)NC2=CC(=O)C(NCCCCP(=O)(O)O)=C(C[C@@H](C)C[C@H](OC)[C@H](O)[C@@H](C)/C=C(\C)[C@@H]1OC(N)=O)C2=O [Compound 10],,,,~2000
"C=CCNC1=C2C[C@@H](C)C[C@H](OC)[C@H](O)[C@@H](C)/C=C(\C)[C@H](OC(N)=O)[C@@H](OC)/C=C\C=C(/C)C(=O)NC(=CC1=O)C2=O [Compound 17-AAG, 17-allylamino-17-demethoxy-geldanamycin, reference compound]",,,,38

# From US7378407B2, “Geldanamycin compounds and method of use” (Kosan Biosciences Incorporated, priority 2004, dated 2008)
